Laboratory results taken from article PMC10726920 (Cancer Medicine, 2023).
Several values for one entry are separate records, joined by “and”; a condition that tells them apart may be missing. Equal entries are not always repeated. Where two headings read alike, the source gives them in different places.

Columns and labels:
BCR‐ABL‐positive ALL = test system: BCR‐ABL‐positive ALL; design: method as in PMID 23090679; conditions: cited from earlier work
[1] = test system: human ALL lines and clinical ALL samples; design: method as in PMID 26917778; conditions: cited from earlier work
[2] = Plasma pharmacokinetics, Cycle 1 (LC-MS, non-compartmental); type: in vivo, human; conditions: for half-life / Tmax / concentration at 7 days / AUC(0-t) / Cmax: human, plasma, 3 mg; for concentration at 7 days: after 7 days of dosing
Procedure: (§1) Blood samples were obtained on Days 1, 2, and 8 of Cycle 1. […] plasma concentrations were measured using liquid chromatography‐mass spectroscopy. Plasma concentration‐time data were analyzed by standard methods using WinNonlin. Pearson's correlation coefficient (r) was used to assess correlation of group variables. Statistical significance was defined as p < 0.05. Additional details are contained in the Supplementary Method: Data S1.
Blood samples (6 ml, sodium heparin) were obtained during the first cycle of treatment before drug administration on Days 1, 2 and 8; and 0.5, 1, 2, 3, 4, and 8 hours after the oral dose was administered on Day 1 and Day 8. After collection, tubes were immediately cooled in an ice water bath and plasma was isolated by centrifugation (10 minutes; 1,100 - 1,300 x g; 4°C) in a refrigerated centrifuge. Plasma samples were frozen immediately and stored at approximately -70°C or lower until analysis.
Plasma concentration-time data were analyzed by standard non-compartmental methods using WinNonlin (Pharsight, Mountain View, CA). Standard descriptive statistics were used to summarize plasma sapanisertib PK parameters. […] Oral steady-state clearance (ClSS/F) was calculated using the equation, ClSS = Dose/AUCτ.

[3] = test system: relapsed/refractory acute lymphoblastic leukemia; assay: Response (modified IWG criteria) and overall survival, Phase II study NCI-9775; type: in vivo, human
Procedure: Evaluable patients for response include all patients who had measurable disease present at baseline, began treatment, and had their disease re‐evaluated. Response was assessed by bone marrow aspirates and biopsies performed every 2 months (mandated at the end of Cycle 2, Cycle 4, and Cycle 6). The best responses were captured as overall responses at any time point. Response was evaluated based on modified response criteria by the International Working Group (IWG) recommendations for acute myeloid leukemia (Table S1).[33]
This was a phase II trial designed using a Simon design with an interim analysis to evaluate efficacy. Efficacy (success) was defined as a complete response (CR or CR incomplete (i)). All patients meeting the eligibility criteria who signed a consent form and began treatment were deemed evaluable for toxicity. […] Thus, this regimen was to be considered ineffective if the success rate was 10% or less (null hypothesis), while the smallest success rate that would warrant subsequent studies was 30% (i.e., alternate research hypothesis). With a maximum of 26 evaluable patients, this trial had 85% power to detect a CR/CRi rate of 30% or greater (vs. 10% or less) with a one‐sided Type I error of 0.09. This trial was designed with a futility analysis after enrollment of 11 patients; if there were one or fewer successes observed in these first 11 patients, the regimen would be considered ineffective, and the study terminated. If two or more successes were observed, the enrollment would continue to a total of 26 evaluable patients. In the final analysis, if five or more of these 26 evaluable patients had achieved a CR or CRi, this would be considered sufficient evidence of promising activity in this patient population. Otherwise, if four or fewer CR/CRi events were observed, this regimen would not warrant further evaluation in this population.
The primary endpoint was the proportion of successes, which was estimated by the number of successes divided by the total number of evaluable patients. Secondary endpoints of duration of response (CR or CRi) and overall survival (OS) were evaluated using Kaplan–Meier techniques; the frequency of proceeding to allogeneic stem cell transplant after achieving response and adverse events (AEs), as evaluated using reported the NCI Common Terminology Criteria for Adverse Events (CTCAE) version 4.0, were presented using descriptive statistics.

[4] = Pearson correlation of sapanisertib clearance with toxicity and group variables; type: in vivo, human; conditions: p > 0.05
Procedure: as §1
Statistical significance was defined as P<0.05.

[5] = test system: patients with advanced multiple myeloma; design: method as in PMID 26800393; conditions: orally daily; cited from earlier work

For CC(C)n1nc(-c2ccc3oc(N)nc3c2)c2c(N)ncnc21 [sapanisertib], the “growth of syngeneic mouse model of BCR‐ABL‐positive ALL” value (BCR‐ABL‐positive ALL) is given as “inhibited growth”, the “cytotoxic effects compared with rapamycin” value [1] is given as “greater cytotoxic effects than rapamycin” and the “C max, Mean ± SD” value ([2]; Cycle 1 Day 1, 3 mg daily oral) is given as 26.1 ± 8.0 ng/mL. For the same molecule, the “CL, Mean ± SD” value ([2]; Cycle 1 Day 1, 3 mg daily oral) was 22.0 ± 14.2 L/h, the “CL, Median (range)” value ([2]; Cycle 1 Day 1, 3 mg daily oral) was 22.0 (5.8–49.2) L/hr and the “CL, Mean ± SD” value ([2]; Cycle 1 Day 8, 3 mg daily oral) was 23.3 ± 23.8 L/h. For the same molecule, the “CL, Median (range)” value ([2]; Cycle 1 Day 8, 3 mg daily oral) was 16.4 (3.2–82.6) L/hr, the peak plasma concentration ([2]; Day 1) was 84 nM and the “time to peak concentration after drug administration” value ([2]; Day 1) was 2 h. For the same molecule, the “time to peak concentration after drug administration” value ([2]; Day 8) was 1.2 h, the “time of peak concentration (mean)” value ([2]; Day 8 dose, discussion) was 1.5 h and the mean accumulation ratio ([2]; Day 8 versus Day 1 AUCall) was 1.4. The “half‐life (terminal serum)” value ([2]; discussion) was 8 h, the half-life ([2]; oral, Day 1, read-out: mean elimination half‐life (converted)) was 8.2 ± 4.9 h and the Tmax ([2]; oral, Day 1, read-out: time to peak concentration, range) was 0.5 to 4.1 h. The half-life ([2]; oral, Day 8, read-out: mean half‐life (converted)) was 24.3 ± 42.5 h, the Tmax ([2]; oral, Day 8, read-out: time to peak concentration, range) was 0.5 to 2.9 h and the concentration at 7 days ([2]; oral, read-out: median trough concentration) was 1.9 ng/mL. It also gave a concentration at 7 days ([2]; oral, read-out: trough concentration, range) of 0 to 41.6 ng/mL, an AUC(0-t) ([2]; po, Cycle 1 Day 1, 3 mg daily oral, read-out: AUC0–24 h, Mean ± SD) of 213 ± 143 ng·h/mL and an AUC(0-t) ([2]; po, Cycle 1 Day 1, 3 mg daily oral, read-out: AUC0–24 h, Median (range)) of 213 ng·h/mL. For the same molecule, the Cmax ([2]; po, Cycle 1 Day 1, 3 mg daily oral, read-out: C max, Mean ± SD) was 26 ng/mL, the Cmax ([2]; po, Cycle 1 Day 1, 3 mg daily oral, read-out: C max, Median (range)) was 26.5 ng/mL and the half-life ([2]; po, Cycle 1 Day 1, 3 mg daily oral, read-out: Half‐life, Mean ± SD (converted)) was 8.2 ± 4.9 h. It also gave a half-life ([2]; po, Cycle 1 Day 1, 3 mg daily oral, read-out: Half‐life, Median (range) (converted)) of 7.1 h, a Tmax ([2]; po, Cycle 1 Day 1, 3 mg daily oral, read-out: T max, Mean ± SD) of 1.7 ± 1.1 h and a Tmax ([2]; po, Cycle 1 Day 1, 3 mg daily oral, read-out: T max, Median (range)) of 2 h. It also gave an AUC(0-t) ([2]; po, Cycle 1 Day 8, 3 mg daily oral, read-out: AUC0–24 h, Mean ± SD) of 361 ± 337 ng·h/mL, an AUC(0-t) ([2]; po, Cycle 1 Day 8, 3 mg daily oral, read-out: AUC0–24 h, Median (range)) of 182 ng·h/mL and a Cmax ([2]; po, Cycle 1 Day 8, 3 mg daily oral, read-out: C max, Mean ± SD) of 34.4 ± 20.9 ng/mL. It also gave a Cmax ([2]; po, Cycle 1 Day 8, 3 mg daily oral, read-out: C max, Median (range)) of 29.4 ng/mL, a half-life ([2]; po, Cycle 1 Day 8, 3 mg daily oral, read-out: Half‐life, Mean ± SD (converted)) of 24.3 ± 42.5 h and a half-life ([2]; po, Cycle 1 Day 8, 3 mg daily oral, read-out: Half‐life, Median (range) (converted)) of 11.3 h. The Tmax ([2]; po, Cycle 1 Day 8, 3 mg daily oral, read-out: T max, Mean ± SD) was 1.5 ± 0.7 h, the Tmax ([2]; po, Cycle 1 Day 8, 3 mg daily oral, read-out: T max, Median (range)) was 1.2 h and the “CR or CRi” value ([3]; 3 mg daily 21 of 28 days) was “No patient”. The Median survival ([3]; 51.0‐NA 95% CI) was 62 days, the “best response stable disease, patients” value ([3]; in vivo) was 2 patients and 3 patients and the “best response stable disease, percent of patients” value ([3]; in vivo) was 12.5% and 19%. For the same molecule, the “disease progression, patients” value ([3]; in vivo) was 6 patients, the “disease progression, percent of patients” value ([3]; in vivo) was 38% and the “not evaluable because of early discontinuation, patients” value ([3]; in vivo) was 7 patients. The “not evaluable because of early discontinuation, percent” value ([3]; in vivo) was 44%, the “correlation between systemic clearance and sex, age, or total body weight” value [4] was “no significant correlation” and the MTD [5] was 6 mg.
